# Experimental data as given in the supplement of paper PMC10307832.
# How the values were obtained:
# Assay in all cases: relative viability (nuclei count vs DMSO), 5 days (fraction); higher = more cells survive
# IPA-3 + Lapatinib = compound: C1=CC=C2C(=C1)C=CC(=C2SSC3=C(C=CC4=CC=CC=C43)O)O [IPA-3] + CS(=O)(=O)CCNCc1ccc(-c2ccc3ncnc(Nc4ccc(OCc5cccc(F)c5)c(Cl)c4)c3c2)o1 [Lapatinib] (partner 2 µM)
# In short: (§1)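 Lung cancer cell lines were pin-tool dosed in 1536-well plates on the day after seeding, with either a lone drug or a fixed anchor-drug dose plus five library-drug doses (not always all listed) in √10 steps. Nuclei were counted on 4× images after 5 days. Relative viability is the ratio of treated-well to vehicle-well nuclei counts, with each value a median of duplicate plates.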
# IPA-3 + Pictilisib = compound: C1=CC=C2C(=C1)C=CC(=C2SSC3=C(C=CC4=CC=CC=C43)O)O [IPA-3] + CS(=O)(=O)N1CCN(Cc2cc3nc(-c4cccc5[nH]ncc45)nc(N4CCOCC4)c3s2)CC1 [Pictilisib] (partner 1 µM)
# In short: as §1
# IPA-3 + Foretinib = compound: C1=CC=C2C(=C1)C=CC(=C2SSC3=C(C=CC4=CC=CC=C43)O)O [IPA-3] + COc1cc2c(Oc3ccc(NC(=O)C4(C(=O)Nc5ccc(F)cc5)CC4)cc3F)ccnc2cc1OCCCN1CCOCC1 [Foretinib] (partner 0.25 µM)
# In short: as §1
# RAF265 + Pictilisib = compound: Cn1c(Nc2ccc(C(F)(F)F)cc2)nc2cc(Oc3ccnc(-c4ncc(C(F)(F)F)[nH]4)c3)ccc21 [RAF265] + CS(=O)(=O)N1CCN(Cc2cc3nc(-c4cccc5[nH]ncc45)nc(N4CCOCC4)c3s2)CC1 [Pictilisib] (partner 1 µM)
# In short: as §1
cell line,measurement,setting,value
UMC-11,relative viability,IPA-3 + Lapatinib; first compound 0.2 µM,0.944
same,relative viability,IPA-3 + Lapatinib; first compound 0.6325 µM,1.1
same,relative viability,IPA-3 + Lapatinib; first compound 2 µM,0.956
same,relative viability,IPA-3 + Lapatinib; first compound 6.325 µM,0.804
same,relative viability,IPA-3 + Lapatinib; first compound 20 µM,1.06
same,relative viability,IPA-3 + Pictilisib; first compound 0.2 µM,0.982
same,relative viability,IPA-3 + Pictilisib; first compound 0.6325 µM,0.815
same,relative viability,IPA-3 + Pictilisib; first compound 2 µM,0.776
same,relative viability,IPA-3 + Pictilisib; first compound 6.325 µM,0.665
same,relative viability,IPA-3 + Pictilisib; first compound 20 µM,0.763
same,relative viability,IPA-3 + Foretinib; first compound 0.2 µM,1.11
same,relative viability,IPA-3 + Foretinib; first compound 0.6325 µM,0.983
same,relative viability,IPA-3 + Foretinib; first compound 2 µM,1.08
same,relative viability,IPA-3 + Foretinib; first compound 6.325 µM,1
same,relative viability,IPA-3 + Foretinib; first compound 20 µM,1.25
same,relative viability,RAF265 + Pictilisib; first compound 0.01 µM,0.782
same,relative viability,RAF265 + Pictilisib; first compound 0.03162 µM,0.747
same,relative viability,RAF265 + Pictilisib; first compound 0.1 µM,0.88
same,relative viability,RAF265 + Pictilisib; first compound 0.3162 µM,0.822
same,relative viability,RAF265 + Pictilisib; first compound 1 µM,0.644
